Counter-ions that a name gives are not always drawn.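 Method: 48-hour compound exposure of cells in 96-well plates, five concentrations, linear interpolation of endpoints. GI50: concentration for 50% inhibition of growth.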 Calls of active or inactive are those of the source. Cut-off read from the data, not from the text of the source: active = GI50 up to about 1.1 µM and inactive = higher.
Legend:
Experiment in all cases: NCI-60 cell line screen, 48 h
HT-29 = test system: HT-29
MDA-MB-231 = test system: MDA-MB-231
MDA-MB-435 = test system: MDA-MB-435
U-251 = test system: U-251
OVCAR-5 = test system: OVCAR-5
HCC 2998 = test system: HCC 2998
KM12 = test system: KM12
SK-OV-3 = test system: SK-OV-3
SK-MEL-28 = test system: SK-MEL-28
Hs-578T = test system: Hs-578T
SK-MEL-5 = test system: SK-MEL-5
HOP-62 = test system: HOP-62
SNB-19 = test system: SNB-19
CCRF-CEM = test system: CCRF-CEM
786-0 = test system: 786-0
SR = test system: SR
OVCAR-3 = test system: OVCAR-3
NCI/ADR-RES = test system: NCI/ADR-RES
OVCAR-8 = test system: OVCAR-8
NCI-H226 = test system: NCI-H226

Measured: GI50

[O-][S+](Cc1ccccc1)c1ccccc1Cn1cccc1 (stereo not drawn)
inactive: HT-29 > 100 µM | MDA-MB-231 > 100 µM | MDA-MB-435 42.6 µM | U-251 > 100 µM | OVCAR-5 > 100 µM | HCC 2998 > 100 µM | KM12 > 100 µM | SK-OV-3 > 100 µM | SK-MEL-28 > 100 µM | Hs-578T > 100 µM | SK-MEL-5 > 100 µM | HOP-62 > 100 µM | SNB-19 > 100 µM | CCRF-CEM > 100 µM | 786-0 > 100 µM | SR 23 µM | OVCAR-3 > 100 µM | NCI/ADR-RES > 100 µM

O=C1c2cc3c(cc2CC12Cc1cc4c(cc1C2=O)CCC4)CCCC3 (stereo not drawn)
inactive: HT-29 > 100 µM | MDA-MB-231 > 100 µM | MDA-MB-435 > 100 µM | U-251 89.1 µM | OVCAR-5 > 100 µM | HCC 2998 > 100 µM | SK-OV-3 > 100 µM | SK-MEL-28 > 100 µM | Hs-578T > 100 µM | SK-MEL-5 > 100 µM | HOP-62 > 100 µM | SNB-19 > 100 µM | CCRF-CEM > 100 µM | 786-0 76 µM | SR > 100 µM | OVCAR-3 > 100 µM | NCI/ADR-RES > 100 µM | OVCAR-8 > 100 µM

CC1C[C@]2(C)C(NCCN)=Nc3ccccc3[C@@H]2N(C)c2ccccc21 (stereo partly drawn)
inactive: HT-29 3.36 µM | MDA-MB-231 8.57 µM | MDA-MB-435 10.7 µM | OVCAR-5 14 µM | HCC 2998 2.9 µM | KM12 16 µM | NCI-H226 14.7 µM | SK-MEL-28 11.2 µM | Hs-578T 18.3 µM | SK-MEL-5 13.7 µM | HOP-62 16.1 µM | SNB-19 13.4 µM | CCRF-CEM 15.9 µM | 786-0 12.2 µM | SR 2.81 µM | OVCAR-3 11.1 µM | NCI/ADR-RES 26.4 µM | OVCAR-8 14.7 µM

O=C(O)C1C(C(=O)O)C(C(=O)O)C1C(=O)O (stereo not drawn)
inactive: HT-29 > 100 µM | MDA-MB-231 > 100 µM | MDA-MB-435 > 100 µM | U-251 > 100 µM | OVCAR-5 > 100 µM | KM12 > 100 µM | SK-OV-3 > 100 µM | NCI-H226 > 100 µM | SK-MEL-28 > 100 µM | Hs-578T > 100 µM | SK-MEL-5 > 100 µM | HOP-62 > 100 µM | SNB-19 > 100 µM | CCRF-CEM > 100 µM | 786-0 > 100 µM | SR 28.9 µM | OVCAR-3 > 100 µM | NCI/ADR-RES > 100 µM | OVCAR-8 > 100 µM

CC1=C(C)C1[N+](=O)[O-]
inactive: HT-29 > 100 µM | MDA-MB-231 > 100 µM | MDA-MB-435 > 100 µM | U-251 > 100 µM | OVCAR-5 > 100 µM | HCC 2998 > 100 µM | KM12 > 100 µM | SK-OV-3 > 100 µM | NCI-H226 > 100 µM | SK-MEL-28 > 100 µM | Hs-578T > 100 µM | SK-MEL-5 > 100 µM | HOP-62 > 100 µM | SNB-19 > 100 µM | CCRF-CEM > 100 µM | 786-0 > 100 µM | OVCAR-3 > 100 µM | NCI/ADR-RES > 100 µM | OVCAR-8 > 100 µM

Nc1nc2c(c(=O)[nH]1)C(c1ccccc1)CC(=O)N2 (stereo not drawn)
inactive: HT-29 > 100 µM | MDA-MB-231 > 100 µM | MDA-MB-435 > 100 µM | U-251 > 100 µM | OVCAR-5 > 100 µM | HCC 2998 > 100 µM | KM12 > 100 µM | SK-OV-3 > 100 µM | NCI-H226 > 100 µM | SK-MEL-28 > 100 µM | Hs-578T > 100 µM | SK-MEL-5 > 100 µM | HOP-62 > 100 µM | SNB-19 > 100 µM | 786-0 > 100 µM | SR > 100 µM | OVCAR-3 > 100 µM | NCI/ADR-RES > 100 µM | OVCAR-8 > 100 µM

Cc1ccc(/N=c2/oc3c(ccc4ccccc43)nc2Nc2ccc(C)cc2)cc1
inactive: HT-29 > 100 µM | MDA-MB-231 > 100 µM | MDA-MB-435 > 100 µM | U-251 > 100 µM | OVCAR-5 > 100 µM | HCC 2998 > 100 µM | KM12 > 100 µM | SK-OV-3 > 100 µM | NCI-H226 > 100 µM | SK-MEL-28 > 100 µM | Hs-578T > 100 µM | SK-MEL-5 > 100 µM | HOP-62 > 100 µM | SNB-19 > 100 µM | CCRF-CEM > 100 µM | 786-0 > 100 µM | SR 69.8 µM | NCI/ADR-RES > 100 µM | OVCAR-8 > 100 µM

CC(O)(Cc1ccccc1C#N)Cc1ccccc1C#N
inactive: HT-29 > 100 µM | MDA-MB-231 > 100 µM | MDA-MB-435 > 100 µM | U-251 > 100 µM | OVCAR-5 > 100 µM | HCC 2998 > 100 µM | KM12 51.5 µM | SK-OV-3 > 100 µM | NCI-H226 50 µM | SK-MEL-28 > 100 µM | Hs-578T > 100 µM | SK-MEL-5 57.3 µM | HOP-62 > 100 µM | SNB-19 > 100 µM | 786-0 > 100 µM | SR > 100 µM | OVCAR-3 65.6 µM | NCI/ADR-RES 27.9 µM | OVCAR-8 54.7 µM

COC(NC(N)=O)C(=O)O (stereo not drawn)
inactive: HT-29 > 100 µM | MDA-MB-231 > 100 µM | MDA-MB-435 > 100 µM | U-251 > 100 µM | OVCAR-5 > 100 µM | KM12 > 100 µM | SK-OV-3 > 100 µM | NCI-H226 > 100 µM | SK-MEL-28 > 100 µM | Hs-578T > 100 µM | SK-MEL-5 > 100 µM | HOP-62 > 100 µM | SNB-19 > 100 µM | CCRF-CEM 11 µM | 786-0 > 100 µM | SR > 100 µM | OVCAR-3 > 100 µM | NCI/ADR-RES > 100 µM | OVCAR-8 > 100 µM

Brc1ccc(C2=NCSC(c3ccc(Br)cc3)=N2)cc1
inactive: HT-29 27.4 µM | MDA-MB-231 68.9 µM | MDA-MB-435 28.8 µM | U-251 16.7 µM | OVCAR-5 76 µM | HCC 2998 23 µM | KM12 24.4 µM | SK-OV-3 43.1 µM | NCI-H226 34.3 µM | SK-MEL-28 46.5 µM | Hs-578T 44.1 µM | SK-MEL-5 25.2 µM | HOP-62 39.1 µM | SNB-19 31.8 µM | 786-0 10.7 µM | SR 22.2 µM | NCI/ADR-RES 30.5 µM | OVCAR-8 37.8 µM

CC(=O)OCc1ccc2c(c1)C(O)NC(=O)O2 (stereo not drawn)
inactive: HT-29 > 100 µM | MDA-MB-231 > 100 µM | MDA-MB-435 > 100 µM | U-251 58.6 µM | OVCAR-5 > 100 µM | KM12 88.5 µM | SK-OV-3 > 100 µM | NCI-H226 96.6 µM | SK-MEL-28 > 100 µM | Hs-578T 18.7 µM | SK-MEL-5 72.9 µM | HOP-62 > 100 µM | SNB-19 > 100 µM | CCRF-CEM 12.4 µM | 786-0 > 100 µM | SR 10.4 µM | OVCAR-3 21.8 µM | NCI/ADR-RES > 100 µM | OVCAR-8 > 100 µM

O=c1oc2ccc(Cl)cc2cc1-c1cn2ccccc2n1
inactive: HT-29 17.7 µM | MDA-MB-231 8.97 µM | MDA-MB-435 > 100 µM | U-251 3.93 µM | OVCAR-5 57.5 µM | HCC 2998 > 100 µM | KM12 > 100 µM | SK-OV-3 2.14 µM | NCI-H226 20.9 µM | SK-MEL-28 96.8 µM | Hs-578T 7.83 µM | SK-MEL-5 > 100 µM | HOP-62 3.67 µM | CCRF-CEM > 81.3 µM | 786-0 3.24 µM | SR 32.9 µM | OVCAR-3 33.7 µM | NCI/ADR-RES 17.9 µM | OVCAR-8 9.62 µM

Clc1cc2nnn(C3CCCO3)c2cc1Cl (stereo not drawn)
inactive: HT-29 > 100 µM | MDA-MB-231 > 100 µM | MDA-MB-435 > 100 µM | U-251 > 100 µM | OVCAR-5 > 100 µM | HCC 2998 > 100 µM | SK-OV-3 > 100 µM | NCI-H226 > 100 µM | Hs-578T 62.7 µM | SK-MEL-5 75.3 µM | HOP-62 > 100 µM | CCRF-CEM > 100 µM | 786-0 > 100 µM | SR 45.8 µM | OVCAR-3 > 100 µM | NCI/ADR-RES > 100 µM | OVCAR-8 > 100 µM

CC(C)(C)OC(=O)c1cnc(Cl)cn1
inactive: HT-29 46.9 µM | MDA-MB-231 46.1 µM | MDA-MB-435 56.6 µM | U-251 33.8 µM | OVCAR-5 83.4 µM | KM12 22.3 µM | SK-OV-3 > 100 µM | NCI-H226 34.9 µM | SK-MEL-28 37.8 µM | Hs-578T 35.2 µM | SK-MEL-5 47.3 µM | HOP-62 > 100 µM | SNB-19 95.3 µM | CCRF-CEM 18.7 µM | 786-0 > 100 µM | SR 45 µM | NCI/ADR-RES 50 µM | OVCAR-8 38.2 µM

CN1C[C@H](C(=O)N[C@]2(C)O[C@@]3(O)[C@@H]4CCCN4C(=O)[C@H](Cc4ccccc4)N3C2=O)C=C2c3cccc4[nH]cc(c34)C[C@H]21 [ERGOTAMINE TARTRATE]
inactive: HT-29 23.9 µM | MDA-MB-231 19.2 µM | MDA-MB-435 15.9 µM | U-251 18.6 µM | OVCAR-5 20.2 µM | KM12 28.8 µM | SK-OV-3 29.9 µM | NCI-H226 30.3 µM | SK-MEL-28 17.1 µM | Hs-578T 10.2 µM | SK-MEL-5 14.2 µM | HOP-62 23.9 µM | SNB-19 35.1 µM | CCRF-CEM 20 µM | 786-0 20 µM | SR 16.1 µM | OVCAR-3 18.3 µM | NCI/ADR-RES 26.3 µM | OVCAR-8 19.3 µM

Reference: ChEMBL document CHEMBL1201862, “PubChem BioAssay data set” (2004)
